Source: patent US20120029190A1, “COMPOUNDS FOR TREATING DISORDERS MEDIATED BY METABOTROPIC GLUTAMATE RECEPTOR 5, AND METHODS OF USE THEREOF” (priority 2009, published 2012)

The compounds below were run against T1, human recombinant mGluR5 receptor (Homo sapiens, UniProt P41594) (assay: mGluR5 in vitro functional assay (aequorin cell line, inhibition of glutamate EC80 response)). Conditions: Table 1; aequorin cell line expressing human mGluR5, reference agonist glutamate at EC80; obtained in duplicate; read-out: IC50.
T1 construct: expressed in transfected cells; expression induced with doxycycline
T1 sequence (P41594 21-1212): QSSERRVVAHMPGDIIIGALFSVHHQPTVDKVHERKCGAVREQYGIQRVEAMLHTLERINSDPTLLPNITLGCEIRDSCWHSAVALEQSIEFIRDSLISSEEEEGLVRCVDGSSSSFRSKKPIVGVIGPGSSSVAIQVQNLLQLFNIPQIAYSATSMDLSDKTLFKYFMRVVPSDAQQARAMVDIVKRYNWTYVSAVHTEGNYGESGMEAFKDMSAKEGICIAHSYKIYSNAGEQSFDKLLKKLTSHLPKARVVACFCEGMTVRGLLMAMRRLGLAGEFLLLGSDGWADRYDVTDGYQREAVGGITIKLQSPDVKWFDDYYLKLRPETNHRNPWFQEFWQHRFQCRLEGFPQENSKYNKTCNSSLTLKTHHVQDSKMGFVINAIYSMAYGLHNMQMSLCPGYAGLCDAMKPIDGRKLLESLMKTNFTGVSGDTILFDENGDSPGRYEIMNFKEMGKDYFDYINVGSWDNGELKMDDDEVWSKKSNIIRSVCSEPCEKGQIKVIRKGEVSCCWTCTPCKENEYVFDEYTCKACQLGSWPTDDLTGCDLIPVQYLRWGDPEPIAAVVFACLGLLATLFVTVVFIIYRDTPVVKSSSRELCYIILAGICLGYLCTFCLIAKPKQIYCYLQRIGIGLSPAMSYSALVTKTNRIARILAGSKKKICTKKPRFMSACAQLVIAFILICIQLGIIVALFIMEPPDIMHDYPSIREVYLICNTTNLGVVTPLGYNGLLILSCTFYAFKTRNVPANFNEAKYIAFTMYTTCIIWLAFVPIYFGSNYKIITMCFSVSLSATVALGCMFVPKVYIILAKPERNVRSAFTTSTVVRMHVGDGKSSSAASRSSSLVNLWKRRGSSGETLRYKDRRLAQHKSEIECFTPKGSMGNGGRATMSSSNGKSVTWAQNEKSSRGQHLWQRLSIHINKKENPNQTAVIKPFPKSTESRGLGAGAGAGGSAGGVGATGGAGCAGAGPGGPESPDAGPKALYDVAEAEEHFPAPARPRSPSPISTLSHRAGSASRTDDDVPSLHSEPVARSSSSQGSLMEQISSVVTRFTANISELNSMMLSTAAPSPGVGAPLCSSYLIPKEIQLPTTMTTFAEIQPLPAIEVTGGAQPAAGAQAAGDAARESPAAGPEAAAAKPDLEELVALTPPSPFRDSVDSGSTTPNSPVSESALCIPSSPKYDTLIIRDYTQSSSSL
Format: cell-based
Method in brief: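 Doxycycline-induced (600 ng/mL, 18 h) aequorin cells loaded with coelenterazine h ≥4 h at room temperature; compound preincubated 3 min before glutamate at EC80. Luminescence recorded, normalized to digitonin or 20 mM ATP wells; % inhibition of EC80 response fitted by sigmoidal nonlinear regression.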

IC50 [nM] | Structure (SMILES)
< 1000 | N#Cc1cc(F)cc(N2CCc3oc(-c4ccc(F)cn4)nc3C2)c1 [Compound 33, 3-Fluoro-5-(2-(5-fluoropyridin-2-yl)-6,7-dihydrooxazolo[4,5-c]pyridin-5(4H)-yl)benzonitrile]
< 10000 | N#Cc1cccc(-c2nc3c(o2)CCN(c2ncccc2C#N)C3)c1 [Compound 63, 2-(2-(3-Cyanophenyl)-6,7-dihydrooxazolo[4,5-c]pyridin-5(4H)-yl)nicotinonitrile]
> 10000 | N#Cc1cccc(N2CCc3oc(-c4ccncc4)nc3C2)c1 [Compound 78, 3-(2-(Pyridin-4-yl)-6,7-dihydrooxazolo[4,5-c]pyridin-5(4H)-yl)benzonitrile]
< 1000 | Fc1cccc(N2CCCc3oc(-c4ccccn4)nc3C2)c1 [Compound 100, 5-(3-Fluorophenyl)-2-(pyridin-2-yl)-5,6,7,8-tetrahydro-4H-oxazolo[4,5-c]azepine]
< 10000 | c1ccc(-c2nc3c(o2)CCN(c2cnccn2)C3)cc1 [Compound 49, 2-Phenyl-5-(pyrazin-2-yl)-4,5,6,7-tetrahydrooxazolo[4,5-c]pyridine]
> 10000 | N#Cc1cc(F)cc(N2CCc3nc(-c4ccccn4)[nH]c3C2)c1 [Compound 111, 3-Fluoro-5-(2-(pyridin-2-yl)-6,7-dihydro-3H-imidazo[4,5-c]pyridin-5(4H)-yl)benzonitrile]
< 1000 | N#Cc1cc(F)cc(N2CCCc3oc(-c4ccccn4)nc3C2)c1 [Compound 98, 3-Fluoro-5-(2-(pyridin-2-yl)-7,8-dihydro-4H-oxazolo[4,5-c]azepin-5(6H)-yl)benzonitrile]
< 1000 | Clc1cccc(-c2nc3c(o2)CCN(c2cnccn2)C3)c1 [Compound 41, 2-(3-Chlorophenyl)-5-(pyrazin-2-yl)-4,5,6,7-tetrahydrooxazolo[4,5-c]pyridine]
< 1000 | N#Cc1cncc(N2CCc3oc(-c4ccccn4)nc3C2)c1 [Compound 25, 5-(2-(Pyridin-2-yl)-6,7-dihydrooxazolo[4,5-c]pyridin-5(4H)-yl)nicotinonitrile]
< 10000 | N#Cc1cccc(CN2CCc3nc(-c4ccccn4)oc3C2)c1 [Compound 13]

Same assay, conditions: Table 2; aequorin cell line expressing human mGluR5, reference agonist glutamate at EC80; obtained in duplicate; read-out: IC50

IC50 [nM] | Structure (SMILES)
< 1000 | Clc1cncc(N2CCCc3oc(-c4ccccn4)nc3C2)c1 [Compound 198, 5-(5-Chloropyridin-3-yl)-2-(pyridin-2-yl)-5,6,7,8-tetrahydro-4H-oxazolo[4,5-c]azepine]
< 1000 | N#Cc1cc(Cl)cc(N2CCc3oc(-c4ccccn4)nc3C2)c1 [Compound 186, 3-Chloro-5-(2-(pyridin-2-yl)-6,7-dihydrooxazolo[4,5-c]pyridin-5(4H)-yl)benzonitrile]
< 1000 | Fc1ccc(C2CCc3oc(-c4ccccn4)nc3C2)c(Cl)c1 (racemic) [Compound 223, 5-(2-Chloro-4-fluorophenyl)-2-(pyridin-2-yl)-4,5,6,7-tetrahydrobenzo[d]oxazole]
< 1000 | Fc1ccc(-c2nc3c(o2)CCCN(c2cccc(F)c2)C3)nc1 [Compound 133, 5-(3-fluorophenyl)-2-(5-fluoropyridin-2-yl)-5,6,7,8-tetrahydro-4H-oxazolo[4,5-c]azepine]
< 1000 | Clc1ccc(N2CCCc3oc(-c4ccccn4)nc3C2)cc1 [Compound 212, 5-(4-Chlorophenyl)-2-(pyridin-2-yl)-5,6,7,8-tetrahydro-4H-oxazolo[4,5-c]azepine]
< 1000 | Cc1nc(-c2nc3c(o2)CCN(c2ccccc2Cl)C3)cs1 [Compound 172, 5-(2-Chlorophenyl)-2-(2-methylthiazol-4-yl)-4,5,6,7-tetrahydrooxazolo[4,5-c]pyridine]
< 1000 | Oc1ccccc1N1CCc2oc(-c3ccccn3)nc2C1 [Compound 178, 2-(2-(Pyridin-2-yl)-6,7-dihydrooxazolo[4,5-c]pyridin-5(4H)-yl)phenol]
< 1000 | Clc1ccccc1[C@H]1CCc2oc(-c3ccccn3)nc2C1 (single isomer, unassigned) [Compound 221]
< 10000 | c1ccc(-c2nc3c(o2)CCN(c2cncnc2)C3)nc1 [Compound 131, 2-(pyridin-2-yl)-5-(pyrimidin-5-yl)-4,5,6,7-tetrahydrooxazolo[4,5-c]pyridine]
> 10000 | Fc1ccc(N2CCCc3oc(-c4ncccn4)nc3C2)cc1Cl [Compound 204, 5-(3-Chloro-4-fluorophenyl)-2-(pyrimidin-2-yl)-5,6,7,8-tetrahydro-4H-oxazolo[4,5-c]azepine]
